Common to all, as to format: cell-based
For one experiment, the system named is Fadu cells. Description: Fadu Cell Growth Inhibition Test (MTT Assay). As to conditions: Homo sapiens, 72 h incubation. As for the experimental part: Fadu Cell Growth Inhibition Test (MTT Assay)
Cell strains: Fudu (human head and neck cancer cell strains);
Culture medium: 90% EMEM+10% FBS;
(§1) 1. A plate (10 cm) of cells in logarithmic growth phase normally cultured was collected;
(§2) 2. The culture solution was sucked out. The plate was washed with 5 ml of PBS 1-2 times;
(§3) 3. PBS was sucked out. 1.5 ml of 0.25% pancreatin was added to infiltrate the cells for 1 min;
(§4) 4. The pancreatin was sucked out. The culture plate was placed in an incubator. Digestion was carried out for about 5 min at 37° C.;
5. 4.5 ml of complete culture solution was added to the culture plate to stop the digestion. The cells were carefully scoured with micropipette (1 ml) to give a uniform cell suspension. The suspension was implanted into a 96-well cell culture plate by 6000 cells/100 μl per well. The culture plate was incubated overnight under 5% CO2 at 37° C. In day 2, 100 μl of culture solution comprising a compound was added in each well, and further incubated for 72 h under 5% CO2 at 37° C.
(§5) 6. The culture solution was sucked out;
(§6) 7. 100 μl of serum-free culture solution containing 0.5 mg/ml MTT was added in each well, and incubated for 3 h;
(§7) 8. The culture solution was carefully sucked out;
(§8) 9. 100 μl of DMSO was added in each welland vibrated to dissolve;
(§9) 10. OD values were determined at 490 nM.
(§10) 1. Calculation of Relative Inhibition Ratio The inhibition ratio of a compound on cell growth=(PC−n)/(PC−NC)×100%
(§11) IC50: Concentration of a compound where inhibition ratio was 50%. IC50 values were fitted with Origin7.5.

A further experiment concerns SK-OV-3 cells. Description: SK-OV-3 Cell Growth Inhibition Test (MTT Assay). As to conditions: Homo sapiens, 72 h incubation. As for the experimental part: SK-OV-3 Cell Growth Inhibition Test (MTT Assay)
Cell strains: SK-OV-3 (human ovarian cancer cell strains);
Culture medium: 90% McCoy's 5A+10% FBS;
as §1, §2, §3, §4
5. 4.5 ml of complete culture solution was added to the culture plate to stop the digestion.T the cells were carefully scoured with micropipette (1 ml) to give a uniform cell suspension. The suspension was implanted into a 96-well cell culture disc by 4000 cells/100 μl per well. The culture plate was incubated overnight under 5% CO2 at 37° C. In day 2, 100 μl of culture solution comprising a compound was added in each well, and further incubated for 72 h under 5% CO2 at 37° C.
as §5, §6, §7
9. 100 μl of DMSO was added in each well and vibrated to dissolve;
as §9, §10, §11

A further experiment deals with AsPC-1 cells. As to the kind of experiment: AsPC-1 Cell Growth Inhibition Test (MTT Assay). The note with it: Homo sapiens, ASPC1, 72 h incubation. As for the experimental part: AsPC-1 Cell Growth Inhibition Test (MTT Assay)
Cell strains: AsPC-1 (human pancreatic cancer cell strains);
as §1, §2, §3
4. The pancreatin was sucked out. The culture plate was placed in an incubator. Digestion was carried out for about 7.5 min at 37° C.;
5. 4.5 ml of complete culture solution was added to the culture plate to stop the digestion. The cells were carefully scoured with micropipette (1 ml) to give a uniform cell suspension. The suspension was implanted into a 96-well cell culture plate by 8000 cells/100 μl per well. The culture plate was incubated overnight under 5% CO2 at 37° C. In day 2, 100 μl of culture solution comprising a compound was added in each well, and further incubated for 72 h under 5% CO2 at 37° C.
as §5, §6, §7, §8, §9, §10, §11

The next experiment relates to CCRF-CEM/T cells. As to the kind of experiment: CCRF-CEM/T Cell Growth Inhibition Test (MTT Assay). The note with it: Homo sapiens, CCRF-CEM/T cells (resistant to paclitaxel), 72 h incubation. Here is the method: CCRF-CEM/T Cell Growth Inhibition Test (MTT Assay)
Cell strains: CCRF-CEM/T (human acute lymphocytic cell leukemia cells);
triple lysate solution: 10% SDS, 5% isobutanol, 0.012M HCl.
1. Cells were cultured to exponential phase. The cells were suspension cells;
2. The cells were collected by centrifuge. The resulting cells were resuspended in a complete culture medium to a desired concentration. The cells suspension was implanted into a 96-well cell culture plate by 20000 cells per well. A compound was added in the wellsuch that the final volume of the system was 120 μl. The system was further incubated for 72 h under 5% CO2 at 37° C.
7. 30 μl of serum-free culture solution containing 2.5 mg/ml MTT was added in each well, and incubated for 3 h;
8. 150 μl of triple lysate solution was added in each well and placed to dissolve at the room temperature;
9. OD values were determined at 570 nM.
as §10, §11

In the case of `CN(C)C/C=C/C(=O)Nc1cc2c(Nc3ccc(OCc4ccccn4)c(Cl)c3)c(C#N)cnc2cc1OC1CCOC1` (stereo not shown) [Example 2, (E)-N-(4-(3-CHLORO-4-(PYRIDIN-2-YL-METHOXY)PHENYLAMINO)-3-CYANO-7-(TETRAHYDROFURAN-3-YL-OXY)QUINOLIN-6-YL)-4-(DIMETHYLAMINO)-BUT-2-ENAMIDE], the IC50 (in general, the concentration at which inhibition is half-maximal) in the experiment on Fadu cells is 0.149 µM; with SK-OV-3 cells, 0.331 µM; in the experiment on AsPC-1 cells, 0.77 µM; in the experiment on CCRF-CEM/T cells it was 1.8 µM.

The record behind these values is patent publication US9187458B2, “Cyanoquinoline derivatives” (Tianjin Hemay Bio-Tech Co., LTD., priority 2010, dated 2015).
